What all share (experiment): Ras GTP binding domain inhibition assay (Cy3-GTP/Cy5-GTP competition)
One test has as its target T1, KRas G12D mutant (Homo sapiens, UniProt P01116, G12D).
T1 construct: fused on or other part: His tag, used for capture on nickel-coated plates
Particulars: 20 μM. Put shortly:
(§1)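 Compounds tested at 20 μM or in serial dilution for IC50 against nickel-captured His-tagged GTPase, 3 hours at room temperature, with or without His-Sos GEF added for last hour. Fluorescent GTP then added at 100 nM for 45 minutes; wells washed, bound label measured by fluorescence.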

The test system of a further test is KRas wild type. More on the design: species or system human. Particulars: 20 μM; for KRas wild type + SOS: % inh.: with SOS; for KRas wild type: % inh.: without SOS. A digest of the protocol:
as §1

In another test the test system is KRas G12C mutant. More on the design: species or system human. Particulars: 20 μM; for KRas G12C mutant + SOS: % inh.: with SOS; for KRas G12C mutant: % inh.: without SOS. Put shortly: as §1
For the next test, the system named is KRas Q61H mutant. More on the design: species or system human. Particulars: 20 μM; for KRas Q61H mutant + SOS: % inh.: with SOS; for KRas Q61H mutant: % inh.: without SOS. A digest of the protocol:
as §1

Where [1] appears, read: with SOS, read-out: KRas G-12D mutant + SOS: % inh.
Setting [2] is: without SOS, read-out: KRas G12D mutant: % inh.

The text below walks through data of patent publication US20250296938A1, “Compounds that Interact with the Ras Superfamily for the Treatment of Cancers, Inflammatory Diseases, Rasopathies, and Fibrotic Disease” (SHY Therapeutics, LLC, priority 2018, published 2025).

Read-outs that look alike come from different tables or passages of the source.

Take `Cn1ccnc1-c1nc(O)c(O)c(C(=O)N2CCCC2)n1` [drawing 828]: on KRas G12D mutant (setting [1]), the inhibition at 20 µM lay in the range of 1 to 25%. In addition, the inhibition at 20 µM on KRas G12D mutant (setting [2]) fell in the range of 26 to 50%. Moreover, in the test on KRas wild type, the “KRas wild type + SOS: % inh.” value is listed as “A (1-25% inhibition)” and the “KRas wild type: % inh.” value was “B (26-50% inhibition)”. Moreover, in the test with KRas G12C mutant, the “KRas G12C mutant + SOS: % inh.” value is “A (1-25% inhibition)” and the “KRas G12C mutant: % inh.” value is “B (26-50% inhibition)”. In the test with KRas Q61H mutant, the “KRas Q61H mutant + SOS: % inh.” value is “B (26-50% inhibition)” and the “KRas Q61H mutant: % inh.” value is recorded as “C (51-75% inhibition)”.
For the compound `CCN(CC)C(=O)c1nc(-c2nccn2C)nc(O)c1O` [drawing 829], at KRas G12D mutant (setting [1]), the inhibition at 20 µM lay in the range of 1 to 25%. The inhibition at 20 µM on KRas G12D mutant (setting [2]) lay within 51 to 75%. Further, in the test with KRas wild type, the “KRas wild type + SOS: % inh.” value is recorded as “A (1-25% inhibition)” and the “KRas wild type: % inh.” value is “B (26-50% inhibition)”. Also, in the test on KRas G12C mutant, the “KRas G12C mutant + SOS: % inh.” value is given as “A (1-25% inhibition)” and the “KRas G12C mutant: % inh.” value is given as “A (1-25% inhibition)”. For the same compound, in the test on KRas Q61H mutant, the “KRas Q61H mutant + SOS: % inh.” value is “B (26-50% inhibition)” and the “KRas Q61H mutant: % inh.” value was “B (26-50% inhibition)”.
`CC(C)NC(=O)c1nc(-c2nccn2C)nc(O)c1O` [drawing 830]: the inhibition at 20 µM at KRas G12D mutant (setting [1]) lay within 26 to 50%. Besides, on KRas G12D mutant (setting [2]), the inhibition at 20 µM was in the range of 51 to 75%. Moreover, in the test on KRas wild type, the “KRas wild type + SOS: % inh.” value is “B (26-50% inhibition)” and the “KRas wild type: % inh.” value is “C (51-75% inhibition)”. Besides, in the test on KRas G12C mutant, the “KRas G12C mutant + SOS: % inh.” value was “B (26-50% inhibition)” and the “KRas G12C mutant: % inh.” value is “C (51-75% inhibition)”. In the test on KRas Q61H mutant, the “KRas Q61H mutant + SOS: % inh.” value was “C (51-75% inhibition)” and the “KRas Q61H mutant: % inh.” value is listed as “C (51-75% inhibition)”.
Regarding `O=C(c1nc(-c2ccccn2)nc(O)c1O)N1CCCC1` [drawing 831], the inhibition at 20 µM at KRas G12D mutant (setting [1]) lay within 1 to 25%. For the same compound, the inhibition at 20 µM at KRas G12D mutant (setting [2]) lay in the range of 51 to 75%. Also, in the test on KRas wild type, the “KRas wild type + SOS: % inh.” value is on record as “A (1-25% inhibition)” and the “KRas wild type: % inh.” value was “C (51-75% inhibition)”. Further, in the test on KRas G12C mutant, the “KRas G12C mutant + SOS: % inh.” value was “A (1-25% inhibition)” and the “KRas G12C mutant: % inh.” value is listed as “B (26-50% inhibition)”. In the test with KRas Q61H mutant, the “KRas Q61H mutant + SOS: % inh.” value is “B (26-50% inhibition)” and the “KRas Q61H mutant: % inh.” value was “B (26-50% inhibition)”.
As for `O=C(c1nc(-c2ccccn2)nc(O)c1O)N1CCc2ccccc2C1` [drawing 832], at KRas G12D mutant (setting [1]), the inhibition at 20 µM was in the range of 26 to 50%. Also, on KRas G12D mutant (setting [2]), the inhibition at 20 µM was in the range of 51 to 75%. In addition, in the test with KRas wild type, the “KRas wild type + SOS: % inh.” value is on record as “B (26-50% inhibition)” and the “KRas wild type: % inh.” value was “C (51-75% inhibition)”. In addition, in the test with KRas G12C mutant, the “KRas G12C mutant + SOS: % inh.” value was “B (26-50% inhibition)” and the “KRas G12C mutant: % inh.” value is reported as “C (51-75% inhibition)”. Besides, in the test with KRas Q61H mutant, the “KRas Q61H mutant + SOS: % inh.” value is on record as “B (26-50% inhibition)” and the “KRas Q61H mutant: % inh.” value is on record as “C (51-75% inhibition)”.
Regarding `Oc1nc(-c2ncc3n2CCCC3)nc2c(-c3ccccn3)csc12` [drawing 833], the inhibition at 20 µM on KRas G12D mutant (setting [1]) was 51 to 75%. In addition, the inhibition at 20 µM at KRas G12D mutant (setting [2]) was 51 to 75%. Besides, in the test on KRas wild type, the “KRas wild type + SOS: % inh.” value is “B (26-50% inhibition)” and the “KRas wild type: % inh.” value is listed as “C (51-75% inhibition)”. Besides, in the test on KRas G12C mutant, the “KRas G12C mutant + SOS: % inh.” value was “C (51-75% inhibition)” and the “KRas G12C mutant: % inh.” value is on record as “D (76-100% inhibition)”. In the test with KRas Q61H mutant, the “KRas Q61H mutant + SOS: % inh.” value is reported as “C (51-75% inhibition)” and the “KRas Q61H mutant: % inh.” value is recorded as “C (51-75% inhibition)”.
Take `Oc1nc(-c2ncc3ccccn23)nc2c(-c3ccccn3)csc12` [drawing 834]: the inhibition at 20 µM on KRas G12D mutant (setting [1]) fell in the range of 51 to 75%. Besides, the inhibition at 20 µM at KRas G12D mutant (setting [2]) was in the range of 76 to 100%. Further, in the test on KRas wild type, the “KRas wild type + SOS: % inh.” value is listed as “C (51-75% inhibition)” and the “KRas wild type: % inh.” value was “C (51-75% inhibition)”. For the same compound, in the test with KRas G12C mutant, the “KRas G12C mutant + SOS: % inh.” value is recorded as “C (51-75% inhibition)” and the “KRas G12C mutant: % inh.” value was “C (51-75% inhibition)”. In the test on KRas Q61H mutant, the “KRas Q61H mutant + SOS: % inh.” value is given as “C (51-75% inhibition)” and the “KRas Q61H mutant: % inh.” value was “C (51-75% inhibition)”.
Consider `COc1cccc(-c2sc3nc(-c4nccn4C)nc(N4CCC(OC)C4)c3c2-c2ccccc2)c1F.Cl` (stereo not shown) [drawing 838], for which the inhibition at 20 µM on KRas G12D mutant (setting [1]) was 51 to 75%. In addition, the inhibition at 20 µM at KRas G12D mutant (setting [2]) fell in the range of 51 to 75%. Further, in the test on KRas wild type, the “KRas wild type + SOS: % inh.” value is “D (76-100% inhibition)” and the “KRas wild type: % inh.” value is listed as “C (51-75% inhibition)”. In the test with KRas G12C mutant, the “KRas G12C mutant + SOS: % inh.” value is “D (76-100% inhibition)” and the “KRas G12C mutant: % inh.” value is “B (26-50% inhibition)”. In addition, in the test on KRas Q61H mutant, the “KRas Q61H mutant + SOS: % inh.” value is “D (76-100% inhibition)” and the “KRas Q61H mutant: % inh.” value is “B (26-50% inhibition)”.
